In paper PMC9021288 (Nature Communications, 2022):
Values joined by “and” are separate entries in the source; they are usually repeats but may differ in a detail not shown here. Equal values may be shown once.

How the values were obtained:
[1] = tested on: P. falciparum NF54 asexual blood-stage parasites; parameters: method as in earlier work; details: ref 15 (Schalkwijk et al.); cited from earlier work
HepG2 cells = test: HepG2 viability (resazurin); details: for HepG2 viability assay, normalised to controls / HepG2 viability assay, raw signal: replicate 1, replicate 2
Protocol: Safety studies were performed by commercial services using their standard protocols. […] Genotoxicity was investigated using the Ames test (Bacterial Reverse Mutation Assay) (Covance Laboratories Ltd, North Yorkshire, England). In vitro mammalian cell micronucleus screening assay was studied in human peripheral blood lymphocytes (BioReliance Corporation, Rockville, USA). Cardiotoxicity was determined against the hERG channel in an automated patch clamp assay using the Qpatch or against the hNaV 1.5, hKV 1.5 and hCaV 1.2 using a manual patch-clamp technique (Metrion Biosciences, Cambridge, UK). Cytotoxicity in human and rat primary hepatocytes was assessed using the CellTiter-Blue assay performed by commercial services (KaLy-Cell). The viability of HepG2 cells was monitored through the addition of 1 mM resazurin. Following 6 h incubation, the relative amount of reduced resazurin was detected in a fluorimeter and compared to the assay controls (vehicle: 0.1% DMSO and positive control: 10 µM puromycin).

P. falciparum 3D7 = test: Parasite reduction rate (PRR) in vitro killing rate assay; format: cell-based, Plasmodium falciparum
Protocol: The antimalarial killing rate was determined by GlaxoSmithKline (GSK, Tres Cantos, Madrid, Spain) as described previously. […] The number of viable parasites was determined on day 21 and 28 by counting the wells with parasite growth.

[2] = tested on: P. falciparum NF54 sporozoites / liver stages; test: Liver-stage development in human primary hepatocytes; format: cell-based, Plasmodium falciparum; parameters: infected hepatocytes (Rep1, Rep2): unit not given here
Protocol: To assess parasite development in hepatocytes, cryopreserved human primary hepatocytes (Tebu-Bio lot: HC10-10) were thawed according to the manufacturer’s protocol and seeded (50,000 cells per well) in collagen-coated 96-well plates (Greiner). Cells were cultured at 37 °C in 5% CO2 and the medium was refreshed after 3 h and 24 h. Salivary glands from Anopheles stephensi mosquitoes were dissected to obtain NF54 sporozoites that were added (60,000 per well) to hepatocytes 48 h post-thawing. Plates were spun down and sporozoites were incubated with hepatocytes for 3 h. Subsequently, sporozoites were aspirated and compounds diluted in hepatocyte medium, were added to the hepatocytes (0.1% DMSO final concentration). Medium-containing compounds was refreshed daily for four days. Hepatocytes were fixed with ice-cold methanol and samples were blocked with 10% fetal bovine serum (FBS) in PBS. Samples were incubated with rabbit anti-HSP70 (1:75, StressMarq) in 10% FBS for 1-2 h followed by incubation with secondary goat anti-rabbit AlexaFluor 594 antibody (1:1000, Invitrogen) in 10% FBS for 30 min. Samples were washed with PBS containing 0.05% Tween 20 between different steps. Cells were imaged on the Biotek Cytation and images were analyzed automatically using FIJI software.

[3] = tested on: P. falciparum NF54 female gametocytes; test: Dual gamete formation assay, female; format: cell-based, Plasmodium falciparum; details: read-out: IC50 female gametocyte activation
Protocol: After a 48-h incubation, gamete formation was stimulated by a drop in temperature (from 37 °C to 26 °C), and the addition of xanthurenic acid (2.5 µM). At 20 min after induction, exflagellation was recorded by automated time-lapse microscopy. After data collection, the plate was returned to a 26 °C incubator and incubated for 24 h. Female gamete formation was assessed by live staining with a Cy3-labelled anti-Pfs25 monoclonal antibody (1:2222) and recorded by automated microscopy.

rat primary hepatocytes = test: Hepatocyte stability, rat; format: in vitro ADME
dog primary hepatocytes = test: Hepatocyte stability, dog; format: in vitro ADME

For `CC(CNC(=O)C(O)C(C)(C)CO)NC(=O)CCc1ccccc1F` (stereo in doubt) [MMV689258], the IC50 [1] is given as 5 nM.

With `C[C@@H](CNC(=O)[C@H](O)C(C)(C)CO)NC(=O)c1cc(F)c(F)cc1F` [MMV693183] the “HepG2 viability assay, normalised to controls” value (HepG2 cells; log concentration (M) -5) was 96% and 104%, the “HepG2 viability assay, raw signal” value (HepG2 cells; log concentration (M) -5) was 10734 and 11536 and the “HepG2 viability assay, normalised to controls” value (HepG2 cells; log concentration (M) -5.5) was 103% and 105%. For the same molecule, the “HepG2 viability assay, raw signal” value (HepG2 cells; log concentration (M) -5.5) was 11483 and 11722, the “HepG2 viability assay, normalised to controls” value (HepG2 cells; log concentration (M) -6) was 105% and 100% and the “HepG2 viability assay, raw signal” value (HepG2 cells; log concentration (M) -6) was 11668 and 11173. For the same molecule, the “HepG2 viability assay, normalised to controls” value (HepG2 cells; log concentration (M) -6.5) was 103% and 102%, the “HepG2 viability assay, raw signal” value (HepG2 cells; log concentration (M) -6.5) was 11442 and 11328 and the “HepG2 viability assay, normalised to controls” value (HepG2 cells; log concentration (M) -7) was 100% and 101%. The “HepG2 viability assay, raw signal” value (HepG2 cells; log concentration (M) -7) was 11114 and 11207, the “HepG2 viability assay, normalised to controls” value (HepG2 cells; log concentration (M) -7.5) was 104% and 107% and the “HepG2 viability assay, raw signal” value (HepG2 cells; log concentration (M) -7.5) was 11575 and 11909. For the same molecule, the “HepG2 viability assay, normalised to controls” value (HepG2 cells; log concentration (M) -8) was 105% and 102%, the “HepG2 viability assay, raw signal” value (HepG2 cells; log concentration (M) -8) was 11700 and 11315 and the “HepG2 viability assay, normalised to controls” value (HepG2 cells; log concentration (M) -8.5) was 105% and 101%. The “HepG2 viability assay, raw signal” value (HepG2 cells; log concentration (M) -8.5) was 11684 and 11300, the “HepG2 viability assay, normalised to controls” value (HepG2 cells; log concentration (M) -9) was 109% and the “HepG2 viability assay, raw signal” value (HepG2 cells; log concentration (M) -9) was 12138 and 12106. For the same molecule, the IC50 (HepG2 cells; read-out: IC50 viability, HepG2) was > 10000 nM, the “time to parasitemia below the detection limit” value (P. falciparum 3D7; 40 nM (10x IC50)) was ≤ 48 h and the “Average (log parasites +1)” value (P. falciparum 3D7; 24 h) was 0.452. For the same molecule, the “Average (log parasites +1)” value (P. falciparum 3D7; 48 h) was 0.0, the “log (parasites +1)” value (P. falciparum 3D7; 48 h) was 0.0 and the parasites (P. falciparum 3D7; 48 h) was 0. For the same molecule, the “Average (log parasites +1)” value (P. falciparum 3D7; 72h) was 0.0, the “log (parasites +1)” value (P. falciparum 3D7; 72h) was 0.0 and the parasites (P. falciparum 3D7; 72h) was 0. For the same molecule, the “Average (log parasites +1)” value (P. falciparum 3D7; 96h) was 0.0, the “log (parasites +1)” value (P. falciparum 3D7; 96h) was 0.0 and the parasites (P. falciparum 3D7; 96h) was 0. The “Average (log parasites +1)” value (P. falciparum 3D7; 120h) was 0.0, the “log (parasites +1)” value (P. falciparum 3D7; 120h) was 0.0 and the parasites (P. falciparum 3D7; 120h) was 0. For the same molecule, the “efficacy against liver stages” value [2] was “not efficacious against liver stages”, the “infected hepatocytes (Rep1, Rep2)” value ([2]; log concentration (M) -5) was 0.0299 and 0.0223 and the “infected hepatocytes (Rep1, Rep2)” value ([2]; log concentration (M) -5.5) was 0.0585 and 0.0696. The “infected hepatocytes (Rep1, Rep2)” value ([2]; log concentration (M) -7) was 0.3352 and 0.4993, the “infected hepatocytes (Rep1, Rep2)” value ([2]; log concentration (M) -7.5) was 0.3658 and 0.5068 and the IC50 [3] was 12 nM. The “Compound Remaining (% of 0 min)” value (rat primary hepatocytes; 0 min) was 100%, the “Compound Remaining (% of 0 min)” value (rat primary hepatocytes; 5 min) was 96.2% and the “Compound Remaining (% of 0 min)” value (rat primary hepatocytes; 10 min) was 97.1%. The “Compound Remaining (% of 0 min)” value (rat primary hepatocytes; 20 min) was 97.8%, the “Compound Remaining (% of 0 min)” value (rat primary hepatocytes; 40 min) was 92.7% and the “Compound Remaining (% of 0 min)” value (rat primary hepatocytes; 60 min) was 89.2%. The “Compound Remaining (% of 0 min)” value (dog primary hepatocytes; 0 min) was 100%, the “Compound Remaining (% of 0 min)” value (dog primary hepatocytes; 5 min) was 92.3% and the “Compound Remaining (% of 0 min)” value (dog primary hepatocytes; 10 min) was 91.7%. The “Compound Remaining (% of 0 min)” value (dog primary hepatocytes; 20 min) was 92.7%, the “Compound Remaining (% of 0 min)” value (dog primary hepatocytes; 40 min) was 85.2% and the “Compound Remaining (% of 0 min)” value (dog primary hepatocytes; 60 min) was 83.9%.
